Results: US10189803B2, “Synthesis of therapeutic and diagnostic drugs centered on regioselective and stereoselective ring opening of aziridinium ions” (ILLINOIS INSTITUTE OF TECHNOLOGY, priority 2008, dated 2019)

Experiments:
[1] = Complexation kinetics with Bi(III), Arsenazo III (AAIII) spectroscopic competing reaction; type: physicochemical; settings: pH 4.0 (0.15M NH4OAc), 25° C., 1 hour
Experimental: The novel ligand DEPA was further evaluated for the complexation kinetics with other metals. The complexation kinetics of the ligand DEPA with Bi(III) was determined using a well-known spectroscopic competing reaction with AAIII according to a modification of the reported procedure (Kodama, M.; Koike, T.; Mahatma, A. B.; Kimura, E. Inorg. Chem. 1991, 30, 1270). AAIII is known to form a weak complex with many different metals, which produce a UV absorbance maximum between ˜652 nm. However, uncomplexed AAIII absorb little at this wavelength. When introduced to a solution containing the AAIII-metal complex, a chelate can compete with AAIII for the metal. The idea is that if the chelate is more capable of binding the metal than AAIII, the metal will dissociate from the AAIII complex and form a complex with the chelate leading to the decrease in the absorbance at the wavelength. The absorbance (A652) for AAIII-Bi(III) complex was measured in the absence and in the presence of the ligands over 1 hour at rt. The complexation kinetics of Bi(III) was determined at pH 4.0 as hydrolysis occurs at a higher pH. The complexation result of the new ligands studied herein was compared to that of DOTA.
General procedure for complexation kinetics using AAIII. The kinetics experiments were performed as previously described. […]

[2] = T1 relaxivity of Gd(III) complexes (Bruker mq60 NMR analyzer); type: physicochemical; settings: aqueous Gd(III) complexes, ~pH 7, 60 MHz
Experimental: Gd(NE3TA) and Gd(NE3TA-Bn) were synthesized by reacting GdCl3 with NE3TA and NE3TA-Bn, respectively. NE3TA or NE3TA-Bn were mixed with GdCl3 in a molar ratio of 1 to 0.9, and the resulting mixture at pH 7 was heated to 90° C. and stirred until no free Gd(III) ions were detected using an ArsenazoIII (AAIII) assay. Relaxivity of the aqueous […] complexes (pH 7) was measured on a Bruker MQ60 NMR analyzer, and the concentration of the Gd(III) complexes was measured by ICP-MS. […] NE3TA was successfully conjugated with the most common bile acid, cholic acid (FIG. 41).
(§1) Relaxivity Measurements. Relaxivity measurements were acquired by taking the slope of a plot of 1/T1 (s^−1) versus concentration (mM). The longitudinal water proton relaxation times (T1) were determined using a Bruker mq60 NMR (Bruker Canada, Milton, ON, Canada) analyzer operating at 59.97 MHz and 37° C. The agent was added to Millipore water and serially diluted by 0.5 to give a series of 5 concentrations (500 μL total volume) for each relaxivity trial. The T1 was determined using an inversion recovery pulse sequence with 10 different pulse separations per sample, 4 repetitions per echo time, phase cycling, and a recycle delay that is ≥5 times the T1 of each given sample. All curves were fit using a monoexponential curve fitting formula.
Relaxivity of the aqueous Gd(III) complexes (˜pH 7) were measured on a Bruker MQ60 NMR analyzer, and the concentration of the Gd(III) complexes were measured by ICP-MS. […] As mentioned above, the on and off binding to Gd(III) of one of the pendant coordinates would have resulted enhanced relaxivity of Gd(C-NETA) compared to Gd(C-DOTA). Among the evaluated Gd(III) complexes, Gd(C-NE3TA) gives the highest T1 relaxivity at 60 MHz, probably due to increase in q. The relaxation rates for the Gd(III) chelates are dominated by the inner-sphere dipolar coupling between the coordinated water molecule and the paramagnetic Gd(III). The measured relaxivities arise from the exchange between the coordinated water molecule and the surrounding water molecules in solution. […] No indication of Gd(III) dissociation is evident from the relaxivity data, which is in agreement with the in vitro serum stability and in vivo biodistribution studies.
as §1, with “The T1 relaxivity was determined” for “The T1 was determined”

Compound: O=C(O)CN1CCN(CC(=O)O)CCN(CC(=O)O)CCN(CC(=O)O)CC1 [DOTA, reference compound]
- complexation with Bi(III) (absorbance at 652 nm vs time, in words) [1]: sluggish complexation
- T1 relaxivity of Gd(III) complexes of bifunctional ligands [2]: 3.96 mM⁻¹ s⁻¹
